Laboratory results reported in ChEMBL document CHEMBL1124311, “Synthesis and antiallergy activity of 4-(diarylhydroxymethyl)-1-[3-(aryloxy)propyl]piperidines and structurally related compounds” (J Med Chem, 1989).

Assays:
Assay type in all cases: functional, organism-based
Rattus norvegicus [1] = assay: Oral antiallergy activity in the passive foot anaphylaxis (PFA) model of rat, at a dose of 10 (mg/kg); not significantly different from negative control group
Rattus norvegicus [2] = assay: Oral antiallergy activity in the passive foot anaphylaxis (PFA) model of rat, at a dose of 10 (mg/kg); Activity equal to positive control group
Rattus norvegicus [3] = assay: Oral antiallergy activity in the passive foot anaphylaxis (PFA) model of rat, at a dose of 10 (mg/kg); Activity between positive and negative control groups
Rattus norvegicus [4] = assay: Oral antiallergy activity in the passive foot anaphylaxis (PFA) model of rat, at a dose of 3.16 (mg/kg); Activity between positive and negative control groups
Rattus norvegicus [5] = assay: Oral antiallergy activity in the passive foot anaphylaxis (PFA) model of rat, at a dose of 3.16 (mg/kg); not significantly different from negative control group

| SMILES | PFA (Rattus norvegicus [1]) | PFA (Rattus norvegicus [3]) | also measured |
| --- | --- | --- | --- |
| COc1cc(C(C)=O)ccc1OCCCN1CCC(C(O)(c2ccc(Cl)cc2)c2ccc(Cl)cc2)CC1 | Not significantly different from negative control group | – | – |
| COc1cc(C(C)=O)ccc1OCCCN1CCC(C(c2ccccc2)c2ccccc2)CC1 | – | – | PFA (Rattus norvegicus [2]): Activity equal to positive control group |
| COc1cc(C(C)=O)ccc1OCCCN1CCC(CC(O)(c2ccc(F)cc2)c2ccc(F)cc2)CC1 | Not significantly different from negative control group | – | – |
| COc1cc(C(C)=O)ccc1OCCCN1CCCCC1 | Not significantly different from negative control group | – | – |
| OC(c1ccc(F)cc1)(c1ccc(F)cc1)C1CCN(CCCSc2ccccc2)CC1 | – | Activity between positive and negative control groups | – |
| COc1cc(C(C)=O)ccc1OCCCN1CCCC(C(O)(c2ccc(F)cc2)c2ccc(F)cc2)C1 (configuration not stated) | Not significantly different from negative control group | – | – |
| COc1cc(C(C)=O)ccc1OCCCCCN1CCC(C(O)(c2ccc(F)cc2)c2ccc(F)cc2)CC1 | – | Activity between positive and negative control groups | PFA (Rattus norvegicus [4]): Activity between positive and negative control groups |
| CC(C)(C)c1ccc(OCCCN2CCC(C(O)(c3ccc(F)cc3)c3ccc(F)cc3)CC2)cc1 | Not significantly different from negative control group | – | – |
| C[S+]([O-])c1ccc(OCCCN2CCC(C(O)(c3ccc(F)cc3)c3ccc(F)cc3)CC2)cc1 (configuration not stated) | – | Activity between positive and negative control groups | PFA (Rattus norvegicus [5]): Activity between positive and negative control groups |
| CCN(CCCOc1ccc(C(C)=O)cc1OC)CCCC(O)(c1ccc(F)cc1)c1ccc(F)cc1 | Not significantly different from negative control group | – | – |
| OC(c1ccc(F)cc1)(c1ccc(F)cc1)C1CCN(CCCOc2ccc(F)cc2)CC1 | Not significantly different from negative control group | – | – |
| COc1cc(C(C)=O)ccc1OCCCN1CCC(C(O)(c2ccccc2)c2cccc(C(F)(F)F)c2)CC1 (configuration not stated) | Not significantly different from negative control group | – | – |
| COc1cc(C(C)=O)ccc1OCCCN1CCN(c2ccccc2)CC1 | – | – | PFA (Rattus norvegicus [2]): Activity equal to positive control group |
| COC(=O)c1ccc(OCCCN2CCC(C(O)(c3ccccc3)c3ccccc3)CC2)cc1 | Not significantly different from negative control group | – | – |
| CC(=O)c1cccc(OCCCN2CCC(C(O)(c3ccc(F)cc3)c3ccc(F)cc3)CC2)c1 | – | Activity between positive and negative control groups | PFA (Rattus norvegicus [5]): Activity between positive and negative control groups |
| COc1cc(OCCCN2CCC(C(O)(c3ccc(F)cc3)c3ccc(F)cc3)CC2)ccc1C(C)=O | – | Activity between positive and negative control groups | – |
| COc1cc(C(C)=O)ccc1OCCCN1CCC(C(O)(c2ccc(C)cc2)c2ccc(C)cc2)CC1 | Not significantly different from negative control group | – | – |
| COc1cc(C(C)=O)ccc1OCCCN1CCC(C(O)(c2ccc(F)cc2)c2ccccn2)CC1 (configuration not stated) | – | – | PFA (Rattus norvegicus [4]): Activity between positive and negative control groups |
| COc1cc(C(C)=O)ccc1OCCCCCCN1CCC(C(O)(c2ccc(F)cc2)c2ccc(F)cc2)CC1 | Not significantly different from negative control group | – | – |
| O=S(=O)(CCCN1CCC(C(O)(c2ccc(F)cc2)c2ccc(F)cc2)CC1)c1ccccc1 | Not significantly different from negative control group | – | – |

| SMILES | PFA (Rattus norvegicus [1]) | PFA (Rattus norvegicus [3]) | also measured |
| --- | --- | --- | --- |
| CCOC(=O)C(=O)Nc1ccc(OCCCN2CCC(C(O)(c3ccc(F)cc3)c3ccc(F)cc3)CC2)cc1 | Not significantly different from negative control group | – | – |
| COc1cc(C(C)=O)ccc1OCCCN1CCC(C(O)(Cc2ccc(F)cc2)c2ccc(F)cc2)CC1 (configuration not stated) | Not significantly different from negative control group | – | – |
| OC(c1ccc(F)cc1)(c1ccc(F)cc1)C1CCN(CCCOc2ccc(Cl)cc2)CC1 | Not significantly different from negative control group | – | – |
| COc1cc(C(C)=O)ccc1OCCCN1CCC(C(OC)(c2ccccc2)c2ccccc2)CC1 | – | – | PFA (Rattus norvegicus [4]): Activity between positive and negative control groups |
| COc1cc(C(C)=O)ccc1OCCCN1CCC(c2ccccc2)CC1 | Not significantly different from negative control group | – | – |
| COc1cc(C(C)=O)ccc1OCCCN1CCC(C(O)(c2ccccc2)C2CCCCC2)CC1 (configuration not stated) | Not significantly different from negative control group | – | – |
| O=C(CCCN1CCC(C(O)(c2ccc(F)cc2)c2ccc(F)cc2)CC1)c1ccccc1 | Not significantly different from negative control group | – | – |
| COc1cccc(OCCCN2CCC(C(O)(c3ccc(F)cc3)c3ccc(F)cc3)CC2)c1 | – | Activity between positive and negative control groups | PFA (Rattus norvegicus [5]): Activity between positive and negative control groups |
| OC(c1ccc(F)cc1)(c1ccc(F)cc1)C1CCN(CCCNc2ccccc2)CC1 | – | Activity between positive and negative control groups | PFA (Rattus norvegicus [4]): Activity between positive and negative control groups |
| COc1cc(C(C)=O)ccc1OCCCN1CCC(C(O)(c2ccc(F)c(F)c2)c2ccc(F)c(F)c2)CC1 | Not significantly different from negative control group | – | – |
| COc1cc(C(C)=O)ccc1OCCCN1CCC(C(O)(c2cccc(F)c2)c2cccc(F)c2)CC1 | Not significantly different from negative control group | – | – |
| COc1cc(C(C)=O)ccc1OCCCN1CCC(C(=O)c2ccccc2)CC1 | – | – | PFA (Rattus norvegicus [2]): Activity equal to positive control group |
| COc1cc(C(C)=O)ccc1OCCCN1CCC(Cc2ccccc2)CC1 | Not significantly different from negative control group | – | – |
| OC(c1ccc(F)cc1)(c1ccc(F)cc1)C1CCN(CCCC2OCOC2c2ccccc2)CC1 (configuration not stated) | – | Activity between positive and negative control groups | – |
| OC(c1ccc(F)cc1)(c1ccc(F)cc1)C1CCN(CCCOc2ccc(-c3ccccc3)cc2)CC1 | Not significantly different from negative control group | – | – |
| COC(=O)c1ccc(OCCCCN2CCC(C(O)(c3ccc(F)cc3)c3ccc(F)cc3)CC2)cc1 | – | Activity between positive and negative control groups | PFA (Rattus norvegicus [5]): Activity between positive and negative control groups |
| OC(CCCN1CCC(C(O)(c2ccc(F)cc2)c2ccc(F)cc2)CC1)c1ccccc1 (configuration not stated) | – | Activity between positive and negative control groups | PFA (Rattus norvegicus [4]): Activity between positive and negative control groups |
| COc1cc(C(C)=O)ccc1OCCCN1CCC(CC(O)(c2ccc(F)cc2)c2ccc(F)cc2)C1 (configuration not stated) | Not significantly different from negative control group | – | – |
| COc1cc(C(C)=O)ccc1OCCN1CCC(C(O)(c2ccc(F)cc2)c2ccc(F)cc2)CC1 | – | – | PFA (Rattus norvegicus [2]): Activity equal to positive control group |
| COc1cc(C(C)=O)ccc1OCCCN1CCN(C(=O)c2ccccc2)CC1 | Not significantly different from negative control group | – | – |

| SMILES | PFA (Rattus norvegicus [1]) | PFA (Rattus norvegicus [3]) | also measured |
| --- | --- | --- | --- |
| NS(=O)(=O)c1ccc(OCCCN2CCC(C(O)(c3ccc(F)cc3)c3ccc(F)cc3)CC2)cc1 | – | Activity between positive and negative control groups | PFA (Rattus norvegicus [5]): Activity between positive and negative control groups |
| CCOC(=O)c1cccc(OCCCN2CCC(C(O)(c3ccc(F)cc3)c3ccc(F)cc3)CC2)c1 | – | Activity between positive and negative control groups | PFA (Rattus norvegicus [5]): Activity between positive and negative control groups |
| COc1cccc(OC)c1OCCCN1CCC(C(O)(c2ccc(F)cc2)c2ccc(F)cc2)CC1 | – | Activity between positive and negative control groups | PFA (Rattus norvegicus [5]): Activity between positive and negative control groups |
| OC(c1ccccc1)(c1ccccc1)C1CCN(CCCOc2ccccc2)CC1 | – | – | PFA (Rattus norvegicus [2]): Activity equal to positive control group |
| COc1cc(C(C)=O)ccc1OCCCN1CCC(C(C#N)(c2ccccc2)c2ccccc2)CC1 | Not significantly different from negative control group | – | – |
| O=C(c1ccccc1)c1ccc(OCCCN2CCC(C(O)(c3ccc(F)cc3)c3ccc(F)cc3)CC2)cc1 | – | Activity between positive and negative control groups | PFA (Rattus norvegicus [5]): Activity between positive and negative control groups |
| COc1cc(C(C)=O)ccc1OCCCN1CCC(C(O)(c2ccc(F)cc2)c2ccc(F)cc2)C1 (configuration not stated) | Not significantly different from negative control group | – | – |
| N#Cc1ccc(OCCCN2CCC(C(O)(c3ccc(F)cc3)c3ccc(F)cc3)CC2)cc1 | Not significantly different from negative control group | – | – |
| COc1cc(C(C)=O)ccc1OCCCN1CCCC(CC(O)(c2ccc(F)cc2)c2ccc(F)cc2)C1 (configuration not stated) | Not significantly different from negative control group | – | – |
| COc1cc(C(C)=O)ccc1OCCCN1CCC(C(C(N)=O)(c2ccccc2)c2ccccc2)CC1 | Not significantly different from negative control group | – | – |
| COc1ccc(C(O)(c2ccc(OC)cc2)C2CCN(CCCOc3ccc(C(C)=O)cc3OC)CC2)cc1 | Not significantly different from negative control group | – | – |
| OC(c1ccc(F)cc1)(c1ccc(F)cc1)C1CCN(CCCOc2ccccc2OCc2ccccc2)CC1 | – | Activity between positive and negative control groups | – |
| COc1cc(C(C)=O)ccc1OCCCN1CCN(Cc2ccccc2)CC1 | Not significantly different from negative control group | – | – |
| COc1cc(C(C)=O)ccc1OCCCN1CCN(C(c2ccccc2)c2ccccc2)CC1 | – | – | PFA (Rattus norvegicus [2]): Activity equal to positive control group |
| CC(C)c1ccc(OCCCN2CCC(C(O)(c3ccc(F)cc3)c3ccc(F)cc3)CC2)cc1 | – | Activity between positive and negative control groups | PFA (Rattus norvegicus [5]): Activity between positive and negative control groups |
| CC(=O)c1ccccc1OCCCN1CCC(C(O)(c2ccc(F)cc2)c2ccc(F)cc2)CC1 | – | Activity between positive and negative control groups | PFA (Rattus norvegicus [5]): Activity between positive and negative control groups |
| Cc1ccccc1OCCCN1CCC(C(O)(c2ccc(F)cc2)c2ccc(F)cc2)CC1 | – | Activity between positive and negative control groups | – |
| CN(CCCN1CCC(C(O)(c2ccc(F)cc2)c2ccc(F)cc2)CC1)c1ccccc1 | – | Activity between positive and negative control groups | PFA (Rattus norvegicus [4]): Activity between positive and negative control groups |
